Reference: article PMC12165043, “Neophytadiene, a Plant Specialized Metabolite, Mediates the Virus‐Vector‐Plant Tripartite Interactions” (Advanced Science, 2025)
“And” between values parts separate entries of the source, which are not always exact repeats. Identical values can stand only once.

Tests used:
[1] = tested on: Bemisia tabaci whiteflies; assay: Y-tube olfactory choice assay, volatile standard versus solvent control; type: in vivo; conditions: for Whitefly preference for plant volatiles versus control (solvent only): number of whiteflies in the volatile arm: Fig 1F raw data, individual replicates (n = 9), 100 whiteflies released, counted for 20 min; for impact of volatile on whitefly preference: Y-tube, volatile standard versus solvent control, n = 9, result in words
Description: Y‐tube preference assays were conducted as per Shi et al.^[ [51] ^] with an air flow of 100 mL min^−1. A volatile standard (Sigma Aldrich, USA) and control (solvent) were placed in glass containers at either end of the Y‐tube and 100 whiteflies were released at the Y‐tube base. The number of whiteflies moving more than 5 cm into the Y‐tube arm and remaining there for at least 15 s was counted for 20 min. There were nine replicates per volatile for each of the eight volatile compounds.

BtOBP2 [2] = molecular target: T1, BtOBP2 (Bemisia tabaci, UniProt A0A097BTY7); assay: Fluorescence competitive binding assay (displacement of 1-NPN from BtOBP2); conditions: mean ± SEM; for IC50: BtOBP2 2 µM, ligand 2 to 20 µM, read-out: IC50, ligand concentration displacing 50% of the fluorescence intensity of the BtOBP2/1-NPN complex; for Ki: Ki = [IC50]/(1 + [1-NPN]/K1-NPN), read-out: Ki, dissociation constant
T1 sequence (A0A097BTY7 23-247): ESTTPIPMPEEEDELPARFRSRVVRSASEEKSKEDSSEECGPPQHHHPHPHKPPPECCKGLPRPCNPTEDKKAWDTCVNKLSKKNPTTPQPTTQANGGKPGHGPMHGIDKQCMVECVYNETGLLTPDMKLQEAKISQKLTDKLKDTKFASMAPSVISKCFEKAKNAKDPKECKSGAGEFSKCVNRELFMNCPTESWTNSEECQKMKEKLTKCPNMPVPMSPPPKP
Source text: (§1) The specific primers for BtOBP2 were designed using Primer 5 software to amplify the coding sequence according to the Phanta Max Super‐Fidelity DNA Polymerase protocol. Target DNA fragments were purified and ligated into the pEASY‐Blunt cloning vector, and positive colonies were identified by PCR and sequenced. The cloned plasmid was ligated into the pET28a vector (Invitrogen, Waltham USA) following digestion with BamHI and SalI. The resulting construct was transformed into Rosetta (DE3) Escherichia coli competent cells. When the OD600 of the recombinant BtOBP2 reached 0.6 to 0.8, induction was initiated by adding isopropyl‐β‐D‐1‐thiogalactopyranoside (IPTG) (1 mM) at 16 °C for 16 h, followed by purification using the Ni‐NTA purification system.^[ [59] ^] The target protein was verified by 10% SDS‐PAGE, and its concentration was determined with a BCA protein assay kit. The recombinant purified protein was stored at −80 °C until use. The target protein was subjected to Coomassie blue staining and western blot validation through 10% SDS‐PAGE using anti His‐Tag antibody, and its concentration was determined using a BCA protein assay kit. The purified recombinant protein was stored at −80 °C.
The binding affinity of BtOBP2 to the fluorescent probe N‐phenyl‐1‐naphthyl‐amine (1‐NPN1) was determined using a FL7000 fluorescence spectrophotometer (Hitachi, Tokyo Japan). Ligands and 1‐NPN were dissolved in HPLC‐grade methanol to a concentration of 1 mM, and then titrated with BtOBP2 (2 µM) to final concentrations ranging from 2 to 20 µM.^[ [60] ^] The optimal excitation and emission wavelengths of the recombinant protein BtOBP2 were determined, and the 1‐NPN/BtOBP2 mixture was excited at 220 nm with emission spectra recorded from 300 to 500 nm. The binding constants (Kd) of BtOBP2 to 1‐NPN were calculated by Scatchard analysis using Prism 5 software. The IC50 represents the concentration at which 50% of the probe was displaced by the ligand. The Ki values were calculated according to the following equation: Ki = [IC50]/(1 + [1‐NPN]/K1‐NPN), where [1‐NPN] is the free concentration of 1‐NPN, and K1‐NPN is the Kd of the 1‐NPN/BtOBP2 complex.^[ [61] ^]

whiteflies = tested on: whiteflies; parameters: method as in PMID 31842757; conditions: ref [18]; cited from earlier work
[3] = tested on: Bemisia tabaci whiteflies; assay: Whitefly preference for neophytadiene after RNA interference (dsGFP, dsBtOBP2, dsOBP3); conditions: for preference (whiteflies choosing Neophytadiene): Neophytadiene versus CK, single replicates; for preference (whiteflies choosing Neophytadiene) / preference (whiteflies choosing Neophytadiene), mean: Fig 7D; for preference (whiteflies choosing Neophytadiene), mean: unlabelled last row = mean of the 9 replicates
BtOBP1-8 genes = assay: Transcriptional response of BtOBP1-8 to neophytadiene (qRT-PCR); type: in vivo, Bemisia tabaci
Description: RNA was extracted using trizol reagent (Invitrogen, Waltham USA) and dissolved in double‐deionized water; cDNA was synthesized from total RNA (1 µg) using HiScript 1st Strand cDNA Synthesis kit (Vazyme, Nanjing China). Real‐time qPCR was conducted using the MonAmp SYBR Green qPCR Mix (Thermofisher, Waltham USA). Actin and UBI were selected as the housekeeping genes (Table S1, Supporting Information). Each experiment was repeated at least three times and relative gene expression levels calculated for analysis using the 2^−∆∆Ct method.
To investigate the expression profiles of BtOBP1‐8 genes in B. tabaci under neophytadiene treatment, the following experiment was performed. Tomato plants with an identical growth cycle were selected as the treatment group (sprayed with 3 µg g^−1 neophytadiene) and the control group (treated with water only). The treated plants were then placed in a 10 L hermetic container. Once the volatilization reached equilibrium, 500 pairs of adults were introduced into the closed container and fumigated under airtight conditions. Subsequently, the whiteflies were sampled at distinct time points (0, 24, 48, 72, 96 h) respectively for the determination of expression levels.

[4] = tested on: Bemisia tabaci whiteflies; assay: Whole-plant preference test, OELhca4 tomato plants sprayed with neophytadiene or water; type: in vivo
Description: Tests were conducted as per Shi et al.^[ [49] ^] with slight modifications. ToCV‐infected or control (mock‐inoculated) tomato plants were used for preference tests in screened cages. A second set of preference tests was also conducted using OELhca4 (Lhca4 overexpressed) tomato plants sprayed either with neophytadiene (3 µg g^−1 in water) or water only (control). Each cage contained two plants placed 40 cm apart. Under dim light, about 100 whiteflies that had been starved for 2 h were released above the center of the two plants and the whiteflies on each plant counted after 48 h. Each of the two preference tests (ToCV‐infected versus uninfected plants; OELhca4 plants sprayed with either neophytadiene or water) was replicated nine times.

Trialeurode vaporariorum = tested on: Trialeurode vaporariorum; parameters: method as in PMID 35244166; conditions: ref [47]; cited from earlier work
TYLCV = tested on: TYLCV; parameters: method as in PMID 36086899; conditions: ref [48]; cited from earlier work
BtOBP2 [5] = molecular target: T1, BtOBP2; assay: Fluorescence binding of the probe 1-NPN to recombinant BtOBP2; conditions: recombinant BtOBP2 2 µM, Scatchard analysis; read-out: binding constant (Kd) of 1-NPN to BtOBP2
Source text: as §1, with “When the OD600 of the recombinant BtOBP2 reached 0.6 to 0.8, induction was initiated by adding isopropyl‐β‐D‐1‐thiogalactopyranoside (IPTG) (1 mM) at 16 °C for 16 h, followed by purification using the Ni‐NTA purification system.^[ [59] ^]” left out, “The recombinant purified protein was stored at −80 °C until use.” left out, “The purified recombinant protein was stored at −80 °C.” left out
The binding affinity of BtOBP2 to the fluorescent probe N‐phenyl‐1‐naphthyl‐amine (1‐NPN1) was determined using a FL7000 fluorescence spectrophotometer (Hitachi, Tokyo Japan). […] The optimal excitation and emission wavelengths of the recombinant protein BtOBP2 were determined, and the 1‐NPN/BtOBP2 mixture was excited at 220 nm with emission spectra recorded from 300 to 500 nm. The binding constants (Kd) of BtOBP2 to 1‐NPN were calculated by Scatchard analysis using Prism 5 software. […]

CC1=CC=C(C(C)C)CC1 [α‐terpinene]
Whitefly preference for plant volatiles versus control (solvent only): number of whiteflies in the volatile arm [1]: 9 and 19 and 28 and 37 and 36 and 43
impact of volatile on whitefly preference [1]: significantly repelled whiteflies
IC50 (BtOBP2 [2]): 20.4 ± 1.29 µM
Ki (BtOBP2 [2]): 15.2 ± 0.96 µM

C=C1CC/C=C(\C)CC[C@@H]2[C@@H]1CC2(C)C [β‐caryophyllene]
Whitefly preference for plant volatiles versus control (solvent only): number of whiteflies in the volatile arm [1]: 41 and 20 and 16 and 6 and 19 and 27 and 31 and 10 and 39
impact of volatile on whitefly preference [1]: significantly repelled whiteflies
IC50 (BtOBP2 [2]): 14.2 ± 0.72 µM
Ki (BtOBP2 [2]): 10.6 ± 0.54 µM

C=CC(=C)CCCC(C)CCCC(C)CCCC(C)C (stereo not shown) [Neophytadiene]
attraction of whiteflies (whiteflies): highly attractive to whiteflies
Whitefly preference for plant volatiles versus control (solvent only): number of whiteflies in the volatile arm [1]: 86 and 89 and 65 and 80 and 52 and 100 and 48
impact of volatile on whitefly preference [1]: attracted B. tabaci
preference for neophytadiene of BtOBP2-silenced (dsOBP2) whiteflies ([3]; after RNA interference of BtOBP2, n = 9): no preference
preference for neophytadiene of BtOBP3-silenced (dsOBP3) whiteflies ([3]; after RNA interference of BtOBP3, n = 9): still exhibited preference
preference (whiteflies choosing Neophytadiene) ([3]; dsGFP-treated whiteflies): 95 and 86 and 80 and 93 and 85 and 88 and 79 and 90
preference (whiteflies choosing Neophytadiene), mean ([3]; dsGFP-treated whiteflies): 87.6667
preference (whiteflies choosing Neophytadiene) ([3]; dsOBP2-treated whiteflies): 36 and 41 and 48 and 46 and 42 and 58 and 59 and 45
preference (whiteflies choosing Neophytadiene), mean ([3]; dsOBP2-treated whiteflies): 46.3333
OBP1 relative expression (BtOBP1-8 genes; 24h, Fig 7A): 1.5096 and 1.0333 and 1.7792
OBP2 relative expression (BtOBP1-8 genes; 24h, Fig 7A): 2.314 and 1.938 and 1.255
OBP3 relative expression (BtOBP1-8 genes; 24h, Fig 7A): 2.295 and 2.274 and 2.135
OBP4 relative expression (BtOBP1-8 genes; 24h, Fig 7A): 1.915 and 1.067 and 1.378
OBP5 relative expression (BtOBP1-8 genes; 24h, Fig 7A): 0.9141 and 1.109 and 1.357
OBP7 relative expression (BtOBP1-8 genes; 24h, Fig 7A): 0.4368 and 0.5508 and 0.2972
OBP1 relative expression (BtOBP1-8 genes; 48h, Fig 7A): 0.9445 and 0.6245 and 1.003
OBP2 relative expression (BtOBP1-8 genes; 48h, Fig 7A): 3.877 and 2.855 and 4.158
OBP3 relative expression (BtOBP1-8 genes; 48h, Fig 7A): 2.98 and 1.807 and 1.705
OBP4 relative expression (BtOBP1-8 genes; 48h, Fig 7A): 1.105 and 0.8073 and 0.7508
OBP7 relative expression (BtOBP1-8 genes; 48h, Fig 7A): 0.7647 and 0.5685 and 0.6675
OBP4 relative expression (BtOBP1-8 genes; 72h, Fig 7A): 0.7926 and 1.238 and 0.8444
OBP6 relative expression (BtOBP1-8 genes; 72h, Fig 7A): 0.6207 and 0.9359 and 1.164
OBP3 relative expression (BtOBP1-8 genes; 96h, Fig 7A): 2.791 and 2.514 and 4.498
OBP4 relative expression (BtOBP1-8 genes; 96h, Fig 7A): 1.221 and 0.8392 and 1.362
OBP6 relative expression (BtOBP1-8 genes; 96h, Fig 7A): 0.4452 and 0.8016 and 0.4814
OBP7 relative expression (BtOBP1-8 genes; 96h, Fig 7A): 0.7369 and 0.9206 and 0.9224
OBP8 relative expression (BtOBP1-8 genes; 96h, Fig 7A): 0.9529 and 0.9384 and 0.8486
relative gene expression of BtOBP1-8 following neophytadiene exposure (BtOBP1-8 genes; continuous release for 96 h, measured every 24 h): Only two genes, BtOBP2 and BtOBP3, increased their expression over time
preference (whiteflies on plant) ([4]; OELhca4+Neophytadiene versus OELhca4, Fig 5J, single replicates): 80 and 70 and 78 and 72 and 60 and 66 and 76 and 73
Whitefly preference for neophytadiene-sprayed versus water-sprayed OELhca4 plants ([4]; neophytadiene 3 µg g^−1 in water, whiteflies counted after 48 h, n = 9): attracted more whiteflies
IC50 (BtOBP2 [2]): 7.95 ± 0.45 µM

CC1=CCC2CC1C2(C)C (stereo not drawn) [α‐pinene]
Whitefly preference for plant volatiles versus control (solvent only): number of whiteflies in the volatile arm [1]: 23 and 24 and 30 and 26 and 17 and 40 and 21 and 6 and 43
impact of volatile on whitefly preference [1]: significantly repelled whiteflies
IC50 (BtOBP2 [2]): 14.6 ± 0.57 µM
Ki (BtOBP2 [2]): 10.9 ± 0.43 µM

phytol
Whitefly preference for plant volatiles versus control (solvent only): number of whiteflies in the volatile arm [1]: 58 and 50 and 60 and 24 and 48 and 27 and 44 and 38
impact of volatile on whitefly preference [1]: did not influence whitefly preference
IC50 (BtOBP2 [2]): 26.1 ± 1.48 µM
Ki (BtOBP2 [2]): 19.5 ± 1.1 µM

C=C1C=CC(C(C)C)CC1 (stereo not drawn) [β‐phellandrene]
Whitefly preference for plant volatiles versus control (solvent only): number of whiteflies in the volatile arm [1]: 34 and 28 and 40 and 32 and 46 and 20 and 36 and 43 and 14
impact of volatile on whitefly preference [1]: significantly repelled whiteflies
IC50 (BtOBP2 [2]): 25.4 ± 3.39 µM
Ki (BtOBP2 [2]): 19 ± 2.53 µM

Cc1ccc(C(C)C)cc1 [ρ‐cymene]
Whitefly preference for plant volatiles versus control (solvent only): number of whiteflies in the volatile arm [1]: 10 and 20 and 17 and 26 and 18 and 25 and 27 and 23
impact of volatile on whitefly preference [1]: significantly repelled whiteflies
effect on settling of whitefly on an otherwise-preferred tomato cultivar (Trialeurode vaporariorum): repelled
IC50 (BtOBP2 [2]): 16.3 ± 0.49 µM
Ki (BtOBP2 [2]): 12.1 ± 0.36 µM

CC/C=C\CCO [(Z)‐3‐hexenol]
effect on tomato defense against infection by whitefly-transmitted TYLCV (TYLCV): improves tomato defense

C=C1CCC2CC1C2(C)C (stereo not drawn) [β‐pinene]
Whitefly preference for plant volatiles versus control (solvent only): number of whiteflies in the volatile arm [1]: 12 and 26 and 37 and 29 and 28 and 24 and 10 and 31 and 15
impact of volatile on whitefly preference [1]: significantly repelled whiteflies
IC50 (BtOBP2 [2]): 13.7 ± 0.51 µM
Ki (BtOBP2 [2]): 10.2 ± 0.38 µM

CC12CCC(CC1)C(C)(C)O2 [1, 8‐cineole]
effect on settling of whitefly on an otherwise-preferred tomato cultivar (Trialeurode vaporariorum): repelled

C=C(C)[C@H]1CC=C(C)CC1 [limonene]
effect on settling of whitefly on an otherwise-preferred tomato cultivar (Trialeurode vaporariorum): repelled

c1ccc(Nc2cccc3ccccc23)cc1 [1‐NPN, N‐Phenyl‐1‐naphthylamine]
Kd (BtOBP2 [5]): 2.94 ± 0.08 µM
